From PMC10620030, “New Organotin (IV) Compounds Derived from Dehydroacetic Acid and Thiosemicarbazides: Synthesis, Rational Design, Cytotoxic Evaluation, and Molecular Docking Simulation” (Bioinorganic Chemistry and Applications, 2023)
“Also recorded” adds a separate entry of the source.

Key:
[1] = system: MDA-MB-231 (human mammary adenocarcinoma) cell line; experiment: sulforhodamine B (SRB) cytotoxicity assay on MDA-MB-231; assay type: cell-based; settings: mean ± SE of three or four assays, incubation 72 h, 48 h exposure
Experimental: (§1) The compounds were screened in vitro against two cancer cell lines, MCF-7 and MDA-MB-231 (human mammary adenocarcinoma), and the normal cell line Cos-7 (African green monkey kidney fibroblast). The MCF-7 and MDA-MB231 cell lines were cultured in RPMI-1640 medium, and Cos-7 was cultured in DMEM (Dulbecco's Modified Eagle's Medium) and supplemented with 10% of fetal bovine serum, 2 mM L-glutamine, 10000 units/ml penicillin G sodium, 10000 μg/ml streptomycin sulfate, 25 μg amphotericin B (Gibco), and 1% of nonessential amino acids (Gibco). The cell lines were maintained at 37°C in a humidified atmosphere with 5% CO2. The viability of the cells used in the experiments exceeded 95%, as determined with trypan blue.
(§2) The human tumor cytotoxicity was assessed using the protein-binding dye sulforhodamine B (SRB) in a microculture assay to measure the cell growth as described by. The human tumors and normal cells were treated with the complexes. The cells were removed from the tissue culture flask by treatment with trypsin and diluted with fresh media from the cell suspension to 100 μl containing 5000–10000 cells per well. The cells were then pipetted into 96 microliter plates (Costar) and incubated at 37°C for 24 h in a 5% CO2 atmosphere. Subsequently, 100 μl of a solution of the corresponding organotin complex at different concentrations was added to each well. […] After the incubation period, the cells were fixed to the plastic substratum by the addition of 50 μl of cold trichloroacetic acid (50% aqueous).
(§3) The plates were incubated at 4°C for one hour, washed with tap water, and air-dried. The addition of […] stained trichloroacetic acid-fixed cells. The free SRB was removed by washing with 1% aqueous acetic acid, the plates were air-dried, and the dyed was solubilized by adding ten mM unbuffered Tris base (100 μl). The plates were placed on a shaker for 10 min, and the absorption was measured at 515 nm using an ELISA plate reader (Bio-Tex Instruments).

[2] = system: MDA-MB-231 cell line; experiment: morphological changes, Giemsa stain light microscopy, MDA-MB-231; assay type: cell-based, human; settings: 48 h treatment
Experimental: (§4) To evaluate the morphological alterations induced by organotin(IV) complexes, MCF-7 and MDA-MB231 cell lines were cultured on a tissue culture flask with or without different treatments for 48 h. After incubation, cells were washed two times with PBS, fixed with methanol 100%, and stained with Wright-Giemsa (Sigma-Aldrich, WG32-1L). The culture flasks were examined under an Olympus IX71 Inverted Fluorescence Phase Contrast Microscope. The images were recorded with a Nikon Coolpix 4300 digital camera using the 20x objectives and analyzed by ImageJ software.

[3] = system: COS-7 (African green monkey kidney fibroblast) normal cell line; experiment: sulforhodamine B (SRB) cytotoxicity assay on normal cell line COS-7; assay type: cell-based; settings: for Non-Cytotoxic concentration on normal cell line COS-7: nondetectable effect on cell proliferation; for IC50: normal cell line, SRB assay, mean ± SE of three or four assays
Experimental: as §1
The human tumor cytotoxicity was assessed using the protein-binding dye sulforhodamine B (SRB) in a microculture assay to measure the cell growth as described by. The human tumors and normal cells were treated with the complexes. The cells were removed from the tissue culture flask by treatment with trypsin and diluted with fresh media from the cell suspension to 100 μl containing 5000–10000 cells per well. The cells were then pipetted into 96 microliter plates (Costar) and incubated at 37°C for 24 h in a 5% CO2 atmosphere. Subsequently, 100 μl of a solution of the corresponding organotin complex at different concentrations was added to each well. The cultures were exposed to the compounds for 48 h. After the incubation period, the cells were fixed to the plastic substratum by the addition of 50 μl of cold trichloroacetic acid (50% aqueous).
as §3

[4] = system: MCF-7 (human mammary adenocarcinoma) cell line; experiment: sulforhodamine B (SRB) cytotoxicity assay on MCF-7; assay type: cell-based; settings: mean ± SE of three or four assays, incubation 72 h, 48 h exposure
Experimental: as §1, §2, §3

[5] = stability in DMSO-d6 by 1H NMR; assay type: physicochemical; settings: DMSO-d6 solution, up to 72 h
Experimental: The stability of the complexes in biological media was tested to evaluate their cytotoxicity. The compounds were dissolved in a DMSO-Tris-HCl buffer (3 : 7 v/v) over a 72 h period, and the UV-Vis spectra were recorded at 0 and 72 h. ^1H NMR spectra in DMSO-d6 of complexes 1a, 1d, 2a, 2d, 3a, and 3d were also acquired at 0, 24, 56, and 72 h.

[6] = system: MCF-7 cell line; experiment: morphological changes, Giemsa stain light microscopy, MCF-7; assay type: cell-based, human; settings: 48 h treatment
Experimental: as §4

Row | SMILES | IC50 [1] [nM] | morphological alterations MDA-MB-231 [2] | Non-Cytotoxic concentration on normal cell line COS-7 [3] [µM] | IC50 [3] [nM] | IC50 [4] [nM] | stability by 1H NMR [5] | morphological alterations MCF-7 [6]
1 | CC1=NN=C(Nc2ccccc2)[S][Sn]([CH]2CCCCC2)([CH]2CCCCC2)[O]c2cc(C)oc(=O)c21 [Compound 3d, 2,2-Dicyclohexyl-7,10-dimethyl-4-(aminophenyl) Pyrane[3,4-h]-1,3,5,6,2-oxathiadiazastannonin-8-one] | 70 ± 5 | chromatin condensation | 0.01 | 160 ± 20 | 160 ± 6 |  | 
2 | CC1=NN=C(N)[S][Sn]([CH]2CCCCC2)([CH]2CCCCC2)[O]c2cc(C)oc(=O)c21 [Compound 1d, 4-Amino-2,2-dicyclohexyl-7,10-dimethylpyrane[3,4-h]-1,3,5,6,2-oxathiadiazastannonin-8-one] | 119 ± 3 |  | 0.01 | 180 ± 6 | 203 ± 8 | good stability | 
3 | CC1=NN=C(N)[S][Sn]([CH2][Si](C)(C)C)([CH2][Si](C)(C)C)[O]c2cc(C)oc(=O)c21 [Compound 1e, 4-Amino-2,2-bis(trimethylsilyl)methyl-7,10-dimethylpyrane[3,4-h]-1,3,5,6,2-oxathiadiazastannonin-8-one] | 42 ± 8 |  | 0.01 | 140 ± 10 | 180 ± 5 |  | 
4 | CC1=NN=C(CN)[S][Sn]([c]2ccccc2)([c]2ccccc2)[O]c2cc(C)oc(=O)c21 [Compound 2c, 2,2-Diphenyl-7,10-dimethyl-4-(aminomethyl) Pyrane[3,4-h]-1,3,5,6,2-oxathiadiazastannonin-8-one] | 1020 ± 30 |  | 0.02 | 1150 ± 100 | 1080 ± 10 |  | 
5 | CCC[CH2][Sn]1([CH2]CCC)[O]c2cc(C)oc(=O)c2C(C)=NN=C(CN)[S]1 [Compound 2a, 2,2-Dibutyl-7,10-dimethyl-4-(aminomethyl) Pyrane[3,4-h]-1,3,5,6,2-oxathiadiazastannonin-8-one] | 310 ± 20 |  | 0.01 | 620 ± 60 | 210 ± 40 | good stability | 
6 | CC1=NN=C(Nc2ccccc2)[S][Sn]([CH2][Si](C)(C)C)([CH2][Si](C)(C)C)[O]c2cc(C)oc(=O)c21 [Compound 3e, 2,2-Bis(trimethylsilyl)methyl-7,10-dimethyl-4-(aminophenyl) Pyrane[3,4-h]-1,3,5,6,2-oxathiadiazastannonin-8-one] | 140 ± 3 | cytoplasm vacuolization | 0.01 | 250 ± 10 | 40 ± 2 |  | Cell density decreased; also recorded: presence of nonadherent cells; also recorded: chromatin condensation and pyknotic nuclei
7 | CCC[CH2][Sn]1([CH2]CCC)[O]c2cc(C)oc(=O)c2C(C)=NN=C(N)[S]1 [Compound 1a, 4-Amino-2,2-dibutyl-7,10-dimethylpyrane[3,4-h]-1,3,5,6,2-oxathiadiazastannonin-8-one] | 120 ± 10 | Cell density decreased | 0.02 | 490 ± 30 | 380 ± 30 | good stability | 
8 | CC1=NN=C(Nc2ccccc2)[S][Sn]([c]2ccccc2)([c]2ccccc2)[O]c2cc(C)oc(=O)c21 [Compound 3c, 2,2-Diphenyl-7,10-dimethyl-4-(aminophenyl) Pyrane[3,4-h]-1,3,5,6,2-oxathiadiazastannonin-8-one] | 490 ± 2 |  | 0.01 | 250 ± 6 | 160 ± 10 |  | 
9 | CCC[CH2][Sn]1([CH2]CCC)[O]c2cc(C)oc(=O)c2C(C)=NN=C(Nc2ccccc2)[S]1 [Compound 3a, 2,2-Dibutyl-7,10-dimethyl-4-(aminophenyl) Pyrane[3,4-h]-1,3,5,6,2-oxathiadiazastannonin-8-one] | 100 ± 10 |  | 0.02 | 340 ± 10 | 210 ± 9 | good stability | 
10 | CCCCCCC[CH2][Sn]1([CH2]CCCCCCC)[O]c2cc(C)oc(=O)c2C(C)=NN=C(NC)[S]1 [Compound 2b, 2,2-Dioctyl-7,10-dimethyl-4-(aminomethyl) Pyrane[3,4-h]-1,3,5,6,2-oxathiadiazastannonin-8-one] | 3280 ± 80 |  | 0.2 | 11600 ± 800 | 1390 ± 30 |  | Cell density decreased
11 | N.N.[Cl][Pt][Cl] [Cisplatin, reference compound] | 27700 |  |  | 7170 ± 600 | 5300 ± 500 |  | 
12 | CC1=NN=C(N)[S][Sn]([c]2ccccc2)([c]2ccccc2)[O]c2cc(C)oc(=O)c21 [Compound 1c, 4-Amino-2,2-diphenyl-7,10-dimethylpyrane[3,4-h]-1,3,5,6,2-oxathiadiazastannonin-8-one] | 170 ± 10 | Cell density decreased | 0.02 | 680 ± 50 | 611 ± 20 |  | 
13 | CC1=NN=C(CN)[S][Sn]([CH]2CCCCC2)([CH]2CCCCC2)[O]c2cc(C)oc(=O)c21 [Compound 2d, 2,2-Dicyclohexyl-7,10-dimethyl-4-(aminomethyl) Pyrane[3,4-h]-1,3,5,6,2-oxathiadiazastannonin-8-one] | 87 ± 200 |  | 0.01 | 280 ± 10 | 200 ± 2 | good stability | 
14 | CC1=NN=C(CN)[S][Sn]([CH2][Si](C)(C)C)([CH2][Si](C)(C)C)[O]c2cc(C)oc(=O)c21 [Compound 2e, 2,2-Bis(trimethylsilyl)methyl-7,10-dimethyl-4-(aminomethyl) Pyrane[3,4-h]-1,3,5,6,2-oxathiadiazastannonin-8-one] | 120 ± 8 |  | 0.01 | 290 ± 30 | 150 ± 20 |  | cytoplasm vacuolization
15 | CCCCCCC[CH2][Sn]1([CH2]CCCCCCC)[O]c2cc(C)oc(=O)c2C(C)=NN=C(Nc2ccccc2)[S]1 [Compound 3b, 2,2-Dioctyl-7,10-dimethyl-4-(aminophenyl) Pyrane[3,4-h]-1,3,5,6,2-oxathiadiazastannonin-8-one] | 540 ± 80 |  | 0.01 | 1600 ± 200 | 730 ± 100 |  | 
16 | CCCCCCC[CH2][Sn]1([CH2]CCCCCCC)[O]c2cc(C)oc(=O)c2C(C)=NN=C(N)[S]1 [Compound 1b, 4-Amino-2,2-dioctyl-7,10-dimethylpyrane-[3,4-h]-1,3,5,6,2-oxathiadiazastannonin-8-one] | 11000 ± 1500 |  | 0.2 | 12200 ± 300 | 8650 ± 700 |  | 
